Measurements taken from ChEMBL document CHEMBL1201862, “PubChem BioAssay data set” (2004).
The source made the active and inactive calls.

How the values were obtained:
[1] = biological target: T1, Short transient receptor potential channel 4 (Mus musculus, UniProt Q9QUQ5); assay: block of DAMGO-driven TRPC4 calcium entry – cell-based, HEK293 TRPC4/mu-opioid, Fluo-4 calcium, dose response (AID 434942); type: functional;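 note: potency of inhibitors blocking the TRPC4 calcium response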
T1 sequence (Q9QUQ5 whole entry): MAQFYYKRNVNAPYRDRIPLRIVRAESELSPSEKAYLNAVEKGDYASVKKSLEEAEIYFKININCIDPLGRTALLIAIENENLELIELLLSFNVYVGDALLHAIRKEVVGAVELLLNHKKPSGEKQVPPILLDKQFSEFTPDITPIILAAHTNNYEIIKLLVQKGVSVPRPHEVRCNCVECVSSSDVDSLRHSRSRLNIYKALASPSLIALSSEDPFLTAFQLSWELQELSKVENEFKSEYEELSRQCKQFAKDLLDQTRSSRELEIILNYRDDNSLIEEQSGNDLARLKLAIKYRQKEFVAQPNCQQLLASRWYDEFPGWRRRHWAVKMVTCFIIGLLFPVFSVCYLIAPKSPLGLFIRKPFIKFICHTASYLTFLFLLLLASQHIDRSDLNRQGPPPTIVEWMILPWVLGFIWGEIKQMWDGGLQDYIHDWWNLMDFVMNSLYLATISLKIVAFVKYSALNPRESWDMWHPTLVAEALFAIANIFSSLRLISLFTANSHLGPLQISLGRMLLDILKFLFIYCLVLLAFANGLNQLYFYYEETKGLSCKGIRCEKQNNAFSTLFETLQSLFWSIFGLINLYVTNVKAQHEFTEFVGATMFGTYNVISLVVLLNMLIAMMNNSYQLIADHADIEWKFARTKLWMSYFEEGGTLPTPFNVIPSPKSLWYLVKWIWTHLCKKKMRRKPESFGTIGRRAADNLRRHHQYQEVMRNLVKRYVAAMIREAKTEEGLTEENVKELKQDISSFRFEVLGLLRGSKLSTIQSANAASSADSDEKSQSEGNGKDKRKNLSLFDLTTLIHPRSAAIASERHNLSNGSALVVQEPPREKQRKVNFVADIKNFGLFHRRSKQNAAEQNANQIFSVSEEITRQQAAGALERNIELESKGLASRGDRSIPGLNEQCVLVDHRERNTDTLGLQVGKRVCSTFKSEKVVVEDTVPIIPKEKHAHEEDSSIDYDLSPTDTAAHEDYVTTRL

[2] = biological target: T2, Corticotropin-releasing factor receptor 2/Corticotropin-releasing factor-binding protein (Homo sapiens, UniProt P24387+Q13324); assay: Dose Response confirmation of uHTS hits for small molecule antagonists of the CRF-binding protein and CRF-R2 receptor complex.; type: functional; details: read-out: IC50_Mean
T2 sequence (Q13324 whole entry): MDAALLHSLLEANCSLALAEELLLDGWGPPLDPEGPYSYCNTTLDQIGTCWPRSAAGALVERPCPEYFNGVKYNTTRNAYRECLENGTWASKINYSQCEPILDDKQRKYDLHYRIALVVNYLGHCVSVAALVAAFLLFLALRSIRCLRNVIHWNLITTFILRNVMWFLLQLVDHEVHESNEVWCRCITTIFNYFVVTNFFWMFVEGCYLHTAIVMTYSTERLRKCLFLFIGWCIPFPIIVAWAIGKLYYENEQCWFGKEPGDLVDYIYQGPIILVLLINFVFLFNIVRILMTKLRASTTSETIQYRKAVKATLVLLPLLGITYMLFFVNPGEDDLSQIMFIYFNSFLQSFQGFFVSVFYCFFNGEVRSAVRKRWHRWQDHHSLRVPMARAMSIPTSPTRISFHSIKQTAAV
T2 sequence (P24387 whole entry): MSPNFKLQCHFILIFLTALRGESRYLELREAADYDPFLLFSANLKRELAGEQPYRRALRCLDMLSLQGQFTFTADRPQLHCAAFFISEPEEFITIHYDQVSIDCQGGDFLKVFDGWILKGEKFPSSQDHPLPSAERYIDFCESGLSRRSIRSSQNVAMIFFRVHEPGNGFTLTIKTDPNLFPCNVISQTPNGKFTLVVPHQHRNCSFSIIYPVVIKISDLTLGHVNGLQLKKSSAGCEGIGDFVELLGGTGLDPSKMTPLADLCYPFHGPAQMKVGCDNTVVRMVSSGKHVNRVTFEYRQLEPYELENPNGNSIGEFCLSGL

[3] = biological target: T2, Corticotropin-releasing factor receptor 2/Corticotropin-releasing factor-binding protein; assay: activators of CRF receptor 2 with binding protein – uHTS hits, confirmation (AID 602473); type: functional; details: read-out: EC50_Mean
[4] = biological target: FAD-linked sulfhydryl oxidase ALR (Homo sapiens, UniProt P55789); assay: ALR-catalysed DTT oxidation blockers – biochemical, H2O2 detection, luminescence, cherry-pick, dose response (AID 493248)
Leucine aminopeptidase = biological target: T3, Leucine aminopeptidase (Plasmodium falciparum 3D7, UniProt Q8IL11); assay: P. falciparum M17LAP inhibitors, primary screen, biochemical, fluorogenic H-Leu-NHMec substrate, 1536-well (AID 1619); type: functional
T3 sequence (Q8IL11 whole entry): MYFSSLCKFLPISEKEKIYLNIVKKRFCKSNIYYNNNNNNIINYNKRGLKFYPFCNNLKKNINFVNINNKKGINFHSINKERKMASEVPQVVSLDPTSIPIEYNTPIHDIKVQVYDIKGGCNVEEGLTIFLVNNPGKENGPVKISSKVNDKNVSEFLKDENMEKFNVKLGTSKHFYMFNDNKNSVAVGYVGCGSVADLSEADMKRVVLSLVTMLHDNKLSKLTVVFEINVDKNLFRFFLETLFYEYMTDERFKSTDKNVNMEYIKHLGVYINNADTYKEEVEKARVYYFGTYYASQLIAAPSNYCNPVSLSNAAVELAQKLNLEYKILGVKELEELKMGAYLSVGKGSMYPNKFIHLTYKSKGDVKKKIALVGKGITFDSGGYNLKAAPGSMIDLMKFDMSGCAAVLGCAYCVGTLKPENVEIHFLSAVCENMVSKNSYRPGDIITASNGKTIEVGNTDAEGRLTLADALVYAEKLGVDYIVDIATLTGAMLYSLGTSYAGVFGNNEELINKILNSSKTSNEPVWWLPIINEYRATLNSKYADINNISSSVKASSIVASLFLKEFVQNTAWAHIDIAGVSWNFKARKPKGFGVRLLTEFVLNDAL

Aminopeptidase N = biological target: T4, Aminopeptidase N (Plasmodium falciparum FcB1/Columbia, UniProt O96935); assay: malaria alanyl aminopeptidase activity blockers – biochemical, fluorogenic H-Leu-NHMec substrate, 1536-well (AID 1445); design: species or system Plasmodium falciparum 3D7, 3D7
T4 sequence (O96935 whole entry): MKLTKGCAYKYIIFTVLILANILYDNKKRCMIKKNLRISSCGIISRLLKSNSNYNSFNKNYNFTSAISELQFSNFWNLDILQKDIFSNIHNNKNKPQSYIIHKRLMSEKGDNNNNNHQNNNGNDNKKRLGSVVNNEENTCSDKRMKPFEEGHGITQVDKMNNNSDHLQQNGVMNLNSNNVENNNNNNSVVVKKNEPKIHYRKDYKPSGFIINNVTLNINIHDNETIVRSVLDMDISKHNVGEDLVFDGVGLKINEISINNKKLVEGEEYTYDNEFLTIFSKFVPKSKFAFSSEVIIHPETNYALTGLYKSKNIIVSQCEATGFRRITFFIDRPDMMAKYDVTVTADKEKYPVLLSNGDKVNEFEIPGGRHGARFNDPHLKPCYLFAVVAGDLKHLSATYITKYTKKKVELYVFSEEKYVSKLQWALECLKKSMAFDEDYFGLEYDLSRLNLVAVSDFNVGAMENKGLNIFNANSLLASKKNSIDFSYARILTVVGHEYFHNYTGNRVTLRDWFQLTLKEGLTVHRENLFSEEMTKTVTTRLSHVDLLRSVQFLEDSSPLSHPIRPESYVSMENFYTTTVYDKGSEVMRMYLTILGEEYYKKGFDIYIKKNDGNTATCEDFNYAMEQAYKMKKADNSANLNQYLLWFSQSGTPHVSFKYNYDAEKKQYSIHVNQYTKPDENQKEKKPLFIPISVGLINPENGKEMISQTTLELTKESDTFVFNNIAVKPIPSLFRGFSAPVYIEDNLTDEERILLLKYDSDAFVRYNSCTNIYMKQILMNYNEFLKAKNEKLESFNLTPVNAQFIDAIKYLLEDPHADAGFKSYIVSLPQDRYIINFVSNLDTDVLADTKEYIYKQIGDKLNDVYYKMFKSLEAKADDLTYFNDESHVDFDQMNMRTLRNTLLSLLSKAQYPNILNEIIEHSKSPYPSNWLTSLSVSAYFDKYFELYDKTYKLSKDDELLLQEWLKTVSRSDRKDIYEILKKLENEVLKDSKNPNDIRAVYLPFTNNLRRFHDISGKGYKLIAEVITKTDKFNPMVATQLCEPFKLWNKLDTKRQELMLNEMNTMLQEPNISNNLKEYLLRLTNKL

[5] = biological target: Induced myeloid leukemia cell differentiation protein Mcl-1 (Homo sapiens, UniProt Q07820); type: functional
Nonstructural protein 1 = Nonstructural protein 1 (Influenza A virus, UniProt Q194T2); type: functional, Influenza A virus (A/California/07/2009(H1N1))
Genome polyprotein = Genome polyprotein (dengue virus type 2, UniProt P29990); assay: flavivirus cap methylation enzyme inhibition – biochemical, confirmation dose response, primary screen (AID 588689); type: functional
[6] = biological target: T5, Rac GTPase-activating protein 1 (Homo sapiens, UniProt Q9H0H5); assay: blockers of MgcRacGAP-driven Rac1 GTP hydrolysis – biochemical, ADP Hunter fluorescence, primary and confirmatory, confirmation (AID 624330); type: functional
T5 sequence (Q9H0H5 whole entry): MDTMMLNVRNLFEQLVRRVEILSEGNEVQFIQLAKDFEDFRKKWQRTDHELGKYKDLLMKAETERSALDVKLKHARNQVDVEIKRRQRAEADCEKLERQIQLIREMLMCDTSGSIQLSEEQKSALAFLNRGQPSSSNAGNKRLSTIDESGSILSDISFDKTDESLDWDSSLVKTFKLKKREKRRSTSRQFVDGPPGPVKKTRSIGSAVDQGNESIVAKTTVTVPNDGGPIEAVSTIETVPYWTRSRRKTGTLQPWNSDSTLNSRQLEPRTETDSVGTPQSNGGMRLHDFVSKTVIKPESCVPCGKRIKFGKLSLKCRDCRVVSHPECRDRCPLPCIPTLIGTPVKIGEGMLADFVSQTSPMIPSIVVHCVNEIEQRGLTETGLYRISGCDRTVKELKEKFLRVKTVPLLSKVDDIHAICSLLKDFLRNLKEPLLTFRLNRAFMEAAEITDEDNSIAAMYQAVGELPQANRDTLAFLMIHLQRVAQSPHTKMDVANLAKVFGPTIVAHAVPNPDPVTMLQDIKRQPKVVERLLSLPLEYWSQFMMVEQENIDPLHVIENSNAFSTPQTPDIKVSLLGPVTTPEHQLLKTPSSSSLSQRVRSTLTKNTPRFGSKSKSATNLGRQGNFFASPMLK

Sequence of FAD-linked sulfhydryl oxidase ALR (P55789 whole entry): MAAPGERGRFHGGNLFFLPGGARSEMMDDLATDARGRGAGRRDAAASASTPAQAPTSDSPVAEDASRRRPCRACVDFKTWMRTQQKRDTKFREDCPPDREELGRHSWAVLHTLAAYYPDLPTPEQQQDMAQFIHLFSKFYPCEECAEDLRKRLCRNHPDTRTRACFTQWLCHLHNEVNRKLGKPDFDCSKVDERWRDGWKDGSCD
Sequence of Genome polyprotein (P29990 2492-3391 limits assumed): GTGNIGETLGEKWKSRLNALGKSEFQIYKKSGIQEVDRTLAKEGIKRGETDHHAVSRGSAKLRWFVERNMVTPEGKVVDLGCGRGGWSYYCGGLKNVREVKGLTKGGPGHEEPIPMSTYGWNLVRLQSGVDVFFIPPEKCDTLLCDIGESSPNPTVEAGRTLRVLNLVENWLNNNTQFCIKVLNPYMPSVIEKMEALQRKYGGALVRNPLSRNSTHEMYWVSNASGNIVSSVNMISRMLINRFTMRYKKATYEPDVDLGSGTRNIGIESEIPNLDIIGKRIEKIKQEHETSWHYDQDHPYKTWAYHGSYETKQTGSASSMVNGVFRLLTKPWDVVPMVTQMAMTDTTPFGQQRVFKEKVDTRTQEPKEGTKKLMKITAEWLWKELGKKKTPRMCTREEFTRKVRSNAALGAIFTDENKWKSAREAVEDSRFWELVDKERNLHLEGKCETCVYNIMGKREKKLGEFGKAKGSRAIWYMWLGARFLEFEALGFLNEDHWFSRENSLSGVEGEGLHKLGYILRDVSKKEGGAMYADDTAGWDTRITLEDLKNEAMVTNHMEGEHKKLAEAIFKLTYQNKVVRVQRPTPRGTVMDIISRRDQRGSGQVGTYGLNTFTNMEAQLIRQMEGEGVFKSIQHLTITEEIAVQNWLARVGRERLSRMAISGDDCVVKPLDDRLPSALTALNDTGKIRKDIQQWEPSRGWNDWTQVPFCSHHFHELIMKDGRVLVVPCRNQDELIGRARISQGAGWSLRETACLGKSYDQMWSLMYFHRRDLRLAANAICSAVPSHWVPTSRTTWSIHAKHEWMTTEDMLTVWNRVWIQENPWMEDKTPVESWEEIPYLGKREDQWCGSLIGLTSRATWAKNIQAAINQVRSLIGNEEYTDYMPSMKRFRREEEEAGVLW
Sequence of Nonstructural protein 1 (Q194T2 whole entry): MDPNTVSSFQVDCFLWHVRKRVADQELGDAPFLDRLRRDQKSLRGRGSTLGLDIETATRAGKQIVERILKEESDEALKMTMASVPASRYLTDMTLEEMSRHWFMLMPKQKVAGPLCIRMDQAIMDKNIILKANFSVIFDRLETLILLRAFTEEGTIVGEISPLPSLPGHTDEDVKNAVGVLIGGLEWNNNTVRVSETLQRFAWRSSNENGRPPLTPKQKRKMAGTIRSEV
Sequence of Induced myeloid leukemia cell differentiation protein Mcl-1 (Q07820 whole entry): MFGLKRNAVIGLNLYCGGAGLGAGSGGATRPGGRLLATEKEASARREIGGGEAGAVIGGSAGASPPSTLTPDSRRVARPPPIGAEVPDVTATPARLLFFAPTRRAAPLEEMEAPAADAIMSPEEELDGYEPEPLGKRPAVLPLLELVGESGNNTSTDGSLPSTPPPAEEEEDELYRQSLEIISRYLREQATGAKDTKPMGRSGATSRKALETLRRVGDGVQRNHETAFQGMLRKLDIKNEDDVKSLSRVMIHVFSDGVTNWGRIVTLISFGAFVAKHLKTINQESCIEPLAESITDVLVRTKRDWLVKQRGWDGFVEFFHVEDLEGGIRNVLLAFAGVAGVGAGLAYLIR

## COc1ccccc1N(C(=O)c1snc(C(N)=O)c1N)C(C(=O)NCc1ccccc1)c1ccc(C)o1 (configuration not stated)
[1]
  EC50: 0.944 µM (active)

## c1ccc2c(c1)nnn2-c1ncnc2sc3c(c12)CCCC3
[1]
  EC50: 6.68 µM (active)
[2]
  IC50: > 47.1 µM (inactive)
[3]
  EC50: > 53 µM (inactive)

## CCc1cc(C(=O)c2ccc(OC)cc2)c(NC(=O)CC(C)(C)CC(=O)O)s1
[4]
  AC50: 4.26 µM (active)

## CCN(CC)c1ccc(NC(=O)CN2CCN(CC(=O)Nc3ccccc3F)CC2)cc1
[4]
  AC50: 1.18 µM (active)

## COc1ccc(NC(=S)NNc2ccc(S(=O)(=O)Nc3ccccc3C(=O)O)cc2[N+](=O)[O-])cc1
Leucine aminopeptidase
  IC50: 4.33 µM (active)
Aminopeptidase N
  IC50: 4.17 µM (active)
[5]
  IC50: 3.37 µM (not active)
Nonstructural protein 1
  IC50: 31.7 µM (active)
Genome polyprotein
  IC50: 15.8 µM (active)

## CC(NC(=O)c1cccc(N(C)C)c1)c1ccc(-n2ccnc2)cc1 (configuration not stated)
[4]
  AC50: 9.59 µM (active)

## O=C(Nc1ccc(O)cc1)c1ccc(C(=O)c2ccccc2)o1
[4]
  AC50: 2.25 µM (active)
[6]
  IC50: 19.5 µM (active)

## CC(CN(C)C)CN1c2ccccc2Sc2ccccc21 (configuration not stated)
[4]
  AC50: 1.25 µM (active)

## COc1ccccc1CNCc1ccc(OC)c2ccccc12
[1]
  EC50: 5.31 µM (active)

## C/C(=N/NS(=O)(=O)c1ccc(Br)cc1)c1ccc(C)o1
[4]
  AC50: 15.4 µM (active)
